A melting point compilation (Tetko et al.; mined from patent text by program, amines drawn as free bases though some values may be those of a salt)

| Structure (SMILES) | melting point [°C] |
| --- | --- |
| CCCCOC(=O)C(C#N)C(=O)c1ccc(Cl)cc1[N+](=O)[O-] (centres undefined) | 56 to 58 |
| COc1cc(NS(=O)(=O)c2ccc(C)cc2)cc(OC)c1 | 103 to 104 |
| CN(C)Cc1cccc(OCCCNc2nc3ccccc3s2)c1 | 154 to 155 |
| Cc1cc(=O)n2nc(-c3ccncc3)nc2n1C | 263 to 267 |
| COc1ccc2ncc3c(c2c1)C(O)CCC3 (centres undefined) | 190 |
| CN(Cc1cccnc1)C(=N)NC#N | 141 to 143 |
| CCC(C)c1ccccc1N (centres undefined) | 89 to 91 |
| CC(C)c1cccc(C(C)C)c1-n1nnn(C(C)C)c1=S | 109 to 111 |
| CCCCc1ncc(/C=C(/C(=O)O)C(Cc2ccccc2)c2cccs2)n1Cc1ccccc1Cl (centres undefined) | 200 to 202 |
| CNC(=O)N(C)C(=O)Nc1ccccn1 | 112 to 115 |
| Cc1[nH]c(Cl)c(C#N)c1SC#N | 171 |
| c1ccc(Cn2ccnc2-c2nnn[nH]2)cc1 | 274 to 275 |
| Nc1ccc2c3c(cccc13)CC2 | 178 to 179 |
| NS(=O)(=O)c1ccc(CCN2CCC(N3CCc4ccccc43)CC2)cc1 | 207 to 210 |
| O=[N+]([O-])CS(=O)(=O)c1ccc(O)cc1 | 93 to 95 |
| CC(=N)c1ccccc1O | 137 to 139 |
| CC(=O)c1ccc(F)c(COc2ccc(S(=O)(=O)c3ccc(C)nc3Nc3c(C)cc(C)cc3C)cc2)c1 | 141 to 143 |
| CC=C(NC(=O)CCC1CCCC1)C(=O)O | 180 to 182 |
| CCOC(=O)COc1cc(-c2ccc(C)cc2)nc2cccc(C(F)(F)F)c12 | 134 |
| O=C(Cc1ccc(I)cc1)N1CCOCC1 | 114 to 117 |
| CSc1cc(C)nc(SC)c1NC(=O)CCCCCCSc1nc2c(C)c(Cl)cc(C(C)C)c2o1 | 129 to 131 |
| Cn1c(-c2ccccc2S(=O)c2nc3ccccc3[nH]2)nc2ccccc21 (centres undefined) | 164 |
| O=C(O)Cc1cc2c(c(C(=O)O)c1)NC(C(F)(F)F)CC2 (centres undefined) | 195 to 196 |
| N#Cc1ccccc1NC(=O)c1snnc1C1CC1 | 124 |
| O=C(Nc1nccs1)C(CC1CCCC1)c1cccc(S(=O)(=O)C(F)(F)F)c1 (centres undefined) | 61 to 64 |
| CC(=O)c1ccc(-c2ccc(F)cc2F)c(F)c1 | 92 to 94 |

| Structure (SMILES) | melting point [°C] |
| --- | --- |
| CC(C)(C)C(NC(=O)c1cc(Cl)cc(Cl)c1)Nc1c(Nc2cncc(C(F)(F)F)c2)c(=O)c1=O (centres undefined) | 233 to 234 |
| O=C(O)c1cnn(OCCCC2OCCO2)c1 | 85 |
| O=C1C[C@@H]2[C@@H](CC[C@H](CCc3ccccc3)OC3CCCCO3)[C@H](OC(=O)c3ccc(-c4ccccc4)cc3)C[C@@H]2O1 (some centres undefined) | 103 to 105 |
| O=C1NC(=O)C(S(=O)(=O)c2ccccc2)S1 (centres undefined) | 130 to 133 |
| CC(C)(O)C1CC(c2ccc(-c3ccc(N4C[C@H](Cn5ccnn5)OC4=O)cc3F)cn2)=NO1 (some centres undefined) | 197 |
| O=C(NCCO)C(O)C(Oc1ccccc1[N+](=O)[O-])c1ccccc1 (centres undefined) | 166 to 188 |
| CC(C)(C)C(Cc1ccccc1)C(=O)n1ccnc1 (centres undefined) | 90 to 91 |
| Cn1nc2c(N)nc3c(c2c1CC(C)(C)O)CCCC3 | 228 to 234 |
| CN(OCc1ccccc1)C(=O)Nc1cccc(S(C)(=O)=O)c1 | 110 to 111 |
| CCN(CC)CC1CCCCN1CCNC(=O)N1c2ccc(C)cc2C(=O)Nc2cccnc21 (centres undefined) | 148 to 150 |
| Nc1ncc(I)c(N)n1 | 212 to 214 |
| Cc1cc(C)c2nc(C3CC3)n(Cc3ccc(C4(C(=O)O)CC=CC4)s3)c2n1 | 184 to 185 |
| CCCCNc1cccnc1S(N)(=O)=O | 100 to 101 |
| N=C(N)NCCc1ccc(NC(=O)CC(c2ccccc2)(c2ccccc2)c2ccccc2)cc1 | 213 to 215 |
| CCCCOC(=O)c1ccc2ccc(C(=O)O)nc2c1OC(=O)C(C)(C)C | 158 |
| CCOC(=O)[C@@H](O)[C@@H]1OC(=O)c2c1cc(OC)c(OC)c2OC | 111 to 112 |
| CCOc1ccccc1C1OC(=O)NC1=O (centres undefined) | 165 to 167 |
| CC(C)([C@H](NC(=O)OCC1c2ccccc2-c2ccccc21)C(=O)O)S(C)(=O)=O | 189 to 192 |
| COc1ccc(-c2nc(S)[nH]c2-c2ccncc2)cc1 | 280 |
| CC(C)(C)OC(=O)NC(Cc1ccc(OCc2ccccc2)cn1)C(=O)NCc1ccc(C(=O)NO)cc1 (centres undefined) | 106 to 108 |
| Nc1nc2c(s1)C(=O)CCC2 | 259 to 262 |
| CC(C)(C#N)CNC(=O)c1n[nH]cc1NC(=O)c1ccccn1 | 238 to 240 |
| CCN1CCCC1CNC(=O)c1cc(S(=O)(=O)NC)cc2c1OCCO2 (centres undefined) | 136 to 137 |
| Cc1ccc(Oc2ccc([N+](=O)[O-])cn2)cc1 | 80 to 82 |
| Cc1[nH]c(-c2ccncc2)c(C)c1C(=O)C(F)(F)F | 169 to 170 |
| NC1=CC(=O)C(N)=C(CCCCCC2=C(N)C(=O)C=C(N)C2=O)C1=O | > 250 |

| Structure (SMILES) | melting point [°C] |
| --- | --- |
| CCn1c(C)nc2cc(C(=O)O)ccc21 | > 250 |
| CCCCCCCCNC(=O)n1nc(Oc2c(Cl)cc(C(F)(F)F)cc2Cl)cc1C | 43 to 45 |
| CCN1C(=O)C(=CC=C2C=C3c4ccccc4CCN3C3=C2CCCC3)C(=O)N(CC)C1=S | 320 |
| Cc1nc(C)c(I)nc1C | 59 to 63 |
| OC(CCl)(c1ccccc1)c1ccc(-c2ccccc2)cc1 (centres undefined) | 94 |
| CCc1c(Br)sc2[nH]c(=O)c(=O)[nH]c12 | 295 to 297 |
| O=S(=O)(c1ccc(Cl)cc1)C(c1ccncc1)C1CCCC1 (centres undefined) | 133 to 135 |
| Cc1cc(C)cc(Nc2nnc(Cc3ccncc3)c3ccccc23)c1 | 174 to 175 |
| Cc1nnc2cc(-c3ccccn3)ccn12 | 239 to 241 |
| N#Cc1c(N2CCN(C(=O)c3cccs3)CC2)c2cc(F)cnc2n(Cc2ccccc2)c1=O | 173 |
| CN(C)C=Nc1snc(C#N)c1C#N | 173 |
| CCOc1ccc(C2=NNCCC2)cc1OCC | 77 to 78 |
| c1ccc(CN2CCC3(CC2)SCCS3)cc1 | 51 to 53 |
| N#Cc1cccc(C(=O)N2CCN(c3ccc(NC(=O)c4ccccc4-c4ccc(C(F)(F)F)cc4)cc3)CC2)c1 | 178 to 180 |
| COC(C)Cc1ccc(OCCNc2ncnc3ccccc23)c(C)c1 (centres undefined) | 95 to 97 |
| Clc1ccc(CNc2ccccc2-n2ccnc2)c(Cl)c1 | 100 to 103 |
| FC(F)(F)C1(c2cc(Cl)cc(Cl)c2)CC(c2ccc(-n3cccn3)cc2)=NO1 (centres undefined) | 174 to 175 |
| CCCc1c(C#N)c2ccc(C(=O)O)cc2n1Cc1ccccc1Cl | 240 to 241 |
| Cc1c(C(=O)Nc2ccc(N3CCC(=O)CC3)c(C#N)c2)cnn1-c1ccc(Cl)cc1 | 238 |
| CNC(=O)c1cc(-c2ccc(SC)cc2)nn(CC(C)C)c1=O | 130 to 131 |
| NS(=O)(=O)c1ccc(C2=C(c3ccc(F)cc3)CC3(CC3)C2)cc1 | 131 to 133 |
| Cc1nc2ncc(C(=O)NCc3ccc(Cl)cc3)c(O)c2cc1Br | 269 to 270 |
| CS(=O)(=O)c1ccc(-c2cc3cccccc-3c2-c2ccccc2)cc1 | 139 to 140 |
| N#Cc1ccccc1CCc1n[nH]c2c1c(=O)n(-c1ccccc1)c1ncccc21 | 316 |
| O=C1NC(=O)C2(C=CC=C3OCC=C32)N1 (centres undefined) | 245 to 248 |
| O=C(C(=O)c1ccccc1Br)c1ccc(F)cc1 | 72 to 78 |

| Structure (SMILES) | melting point [°C] |
| --- | --- |
| N#Cc1nn(-c2c(Cl)cc(C(F)(F)F)cc2Cl)c(N)c1C=O | 194 to 197 |
| CC(=O)c1ccc(S(=O)(=O)Nc2ccc(F)cn2)cc1 | 151 to 152 |
| Cn1c(C(F)(F)F)cc(=O)n(-c2cc(Oc3ncccn3)c(Cl)cc2F)c1=O | 192 to 194 |
| COc1ccc2c(c1Cl)c(CC(=O)O)c(C)n2C(=O)c1ccc(Cl)s1 | 169 |
| COc1nc(C)c(C)cc1NC(=S)N1CCN(c2cc(F)cc(F)c2)CC1 | 60 to 62 |
| Cc1nccn2c(-c3ccnc(NCCC(C)(C)O)n3)c(-c3ccc(F)cc3F)nc12 | 175 |
| O=C1CC(c2ccc(Br)cc2)Oc2ccc(Br)cc21 (centres undefined) | 115 to 117 |
| COCCOc1cccc2c(Nc3ccccc3C)c(C(=O)C(C)C)cnc12 | 68 to 70 |
| CSc1nnc(SCC2=C(C(=O)O)N3C(=O)C(NC(=O)Cc4csc(=O)s4)C3SC2)s1 (centres undefined) | 160 |
| CCCCOc1ccc(NC(=O)N(C)c2cccc(-c3ccc(CCC(=O)O)cc3)c2)cc1 | 165 |
| COc1nc(C)c(C)nc1NC(=S)N1CCN(c2cccc(Br)c2)CC1 | 136 to 138 |
| Clc1nc(-c2cccnc2)sc1NC1CC1 | 56 to 60 |
| O=c1oc(=O)n(Cc2ccccc2)c2ccc(F)cc12 | 95 |
| COCCC(=O)N(Cc1ccc(OC(F)(F)F)cc1)c1cc(Cl)cc(-c2nnn[nH]2)c1 | 146 to 151 |
| CN1CCc2cc(Cl)c(NC=O)cc2[C@@H](c2ccccc2)C1 | 135 to 136 |
| CNc1cc(OC)c(OC)cc1C(C)=O | 121 to 124 |
| CC(C)c1ccccc1N1CCS/C1=N/N=C\c1ccc(-c2ncn(-c3ccc(OC(F)(F)F)cc3)n2)cc1 | 193 to 196 |
| COC(=O)c1oc2ccc(Cl)cc2c1-c1ccccc1C(F)(F)F | 205 to 208 |
| CC(C)c1cccc(C(C)C)c1NC(=O)CN1CC2(CCCCC2)N(c2ccccc2)S1(=O)=O | 140 to 142 |
| COCCN(CCC12CC3CC(CC(C3)C1)C2)C(=O)NCCCc1ccncc1 | 102 to 104 |
| COC(=O)c1ccc([N+](=O)[O-])c([N+](=O)[O-])c1 | 85 to 86 |
| CCOC(=O)c1c(C(F)(F)F)nc(C(F)(F)F)c(C(=O)OCC)c1Cl | 76 to 77 |
| Cn1ccnc1Sc1ccc(Nc2c(C#N)cnc3cc(/C=C/CCO)ccc23)cc1Cl | 205 to 210 |
| CC(C(=O)O)c1ccc2oc(-c3ccccc3)nc2c1 (centres undefined) | 177 to 179 |
| COc1ccc2c(c1)c(C(=O)N1CCN(C)CC1)c(N1CCNCC1)n2C | 124 to 125 |
| CC(C)c1ccc(-c2nc(Cl)c(C=O)n2Cc2ccc(-c3ccccc3S(=O)(=O)N=CN(C)C)cc2)cc1 | 177 |
